Test results as given in patent US20080063628A1, “METHODS TO PROMOTE CELL DIFFERENTIATION” (priority 2006, published 2008).

Tests used:
[1] = test system: second amniotic fluid-derived cell line; assay: Two sequential high dose trichostatin A treatments (24 h each), gene expression by RT-PCR (Example 8); assay type: cell-based, human; settings: for Gata1 gene expression / HNF-3 beta gene expression / Insulin gene expression / Pdx-1 gene expression / sox17 gene expression: 1.25 μM 0-24 h + 96-120 h
Description: Several cell lines obtained from different amniotic fluid specimens (see Example 14) and pancreas donors (see Example 13) were tested with similar results. Two lines at similar passage number but derived from different amniotic fluid specimens are shown in Table VIII-A and Table VIII-B for this example. One of these cell lines was also used in examples 2 and 4 above. In addition, this example also contains comparison data in Table VIII-C and Table VIII-D for a single pancreatic-derived stromal line grown to early and late passage number.
Amniotic fluid derived cells or pancreatic-derived stromal cells were seeded into 24-well tissue culture plates at a density of 5000/cm^2 and cultured in AMNIOMAX (Invitrogen) or DMEM with 10% FBS respectively under standard cell culture conditions until confluent. After the cells reached confluency, amniotic fluid derived cells were treated at time 0 hours with a dose of 1.25 μM trichostatin A, and pancreatic-derived stromal cells were treated with a dose of 5.0 μM trichostatin A solubilized in DMSO and medium. At time 24 hours, cell cultures underwent a complete medium change to remove all traces of trichostatin A. At time 96 hours, cell cultures were re-fed with fresh medium and received a second dose of trichostatin A at the same concentration as used previously. At time 120 hours, cell cultures again underwent a complete medium change and were cultured for an additional 24 hours or […] total incubation time.
Samples were taken daily for RT-PCR at the times indicated in Table VIII-A to D. The culture media was removed, and samples were rinsed in PBS then collected in RLT with β-mercaptoethanol (Qiagen). RNA was purified using the RNeasy Mini Kit (Qiagen) and RNA quantity and quality were determined using a spectrophotometer. cDNA was made using the iScript cDNA synthesis kit (BioRad).
Samples of 20 ng cDNA were used in each reaction to determine the expression levels of the following genes in amniotic fluid-derived cells: Gata1, HNF-3 beta, Pdx-1, insulin, and Sox17. Similarly, samples of 20 ng cDNA were used in each reaction to determine the expression level of the following genes in pancreatic-derived cells: glucagon, HNF-3 beta, insulin and Pdx-1. Real-Time PCR was performed on the Applied Biosystems 7500, and data was analyzed using the accompanying software according to the methods described in Example 15.
Real-time PCR amplifcation and quantitative analysis. Unless otherwise stated, all reagents were purchased from Applied Biosystems. Real-time PCR reactions were performed using the ABI PRISM™ 7500 Sequence Detection System. TAQMAN™ FAST UNIVERSAL PCR MASTER MIX™ (ABI, CA) was used with 20 ng of reverse transcribed RNA in a total reaction volume of 20 μl. Each cDNA sample was run in duplicate to allow correction of pipetting errors. Primers and FAM-labeled TAQMAN™ probes were used at concentrations of 200 nM. The level of expression for each target gene was normalized using the pre-developed Applied Biosystem's human glyceraldehyde-3-phosphate dehydrogenase (GAPDH) endogenous control kit. Primers and probes were designed using either ABI PRISM PRIMER EXPRESS™ software or a pre-developed ABI gene analysis kit. For each gene, either one of the primers or the probe were designed to be exon-boundary spanning. This eliminated the possibility of the primers/probe binding to any genomic DNA present. The primer and probe sets are listed as follows: Pdx-1 (Hs00426216), Insulin (Hs00355773), glucagon (Hs00174967), and FoxA2 (HNF 3-beta) (Hs00232764). The remaining primers were designed using the PRIMERS program (ABI, CA). After an initial 95° C. incubation for 20 sec, samples were cycled 40 times in two stages: a denaturation step at 95° C. for 3 sec, followed by an annealing/extension step at 60° C. for 30 sec. […]

[2] = test system: second amniotic fluid-derived cell line; assay: Two high dose trichostatin A treatments (first 48 h), gene expression by RT-PCR (Example 9); assay type: cell-based, human; settings: 1.25 μM, following first treatment;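 further: lower cycle number means higher gene expression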
[3] = 1.25 μM, following the second treatment

CC(/C=C/C(=O)NO)=C\[C@@H](C)C(=O)c1ccc(N(C)C)cc1 [trichostatin A]
Gata1 gene expression ([1]; 24 hrs): + (detectable between 35 and 40 cycles by RT-PCR)
HNF-3 beta gene expression ([1]; 24 hrs): +++ (detectable at less than 35 cycles by RT-PCR with SE less than 0.9)
Insulin gene expression ([1]; 24 hrs): nd (not detectable at >40 cycles by RT-PCR)
Pdx-1 gene expression ([1]; 24 hrs): +++ (detectable at less than 35 cycles by RT-PCR with SE less than 0.9)
sox17 gene expression ([1]; 24 hrs): +++ (detectable at less than 35 cycles by RT-PCR with SE less than 0.9)
Gata1 gene expression ([1]; 48 hrs): nd (not detectable at >40 cycles by RT-PCR)
HNF-3 beta gene expression ([1]; 48 hrs): +++ (detectable at less than 35 cycles by RT-PCR with SE less than 0.9)
Insulin gene expression ([1]; 48 hrs): nd (not detectable at >40 cycles by RT-PCR)
Pdx-1 gene expression ([1]; 48 hrs): nd (not detectable at >40 cycles by RT-PCR)
sox17 gene expression ([1]; 48 hrs): +++ (detectable at less than 35 cycles by RT-PCR with SE less than 0.9)
Gata1 gene expression ([1]; 72 hrs): nd (not detectable at >40 cycles by RT-PCR)
HNF-3 beta gene expression ([1]; 72 hrs): +++ (detectable at less than 35 cycles by RT-PCR with SE less than 0.9)
Insulin gene expression ([1]; 72 hrs): + (detectable between 35 and 40 cycles by RT-PCR)
Pdx-1 gene expression ([1]; 72 hrs): nd (not detectable at >40 cycles by RT-PCR)
sox17 gene expression ([1]; 72 hrs): +++ (detectable at less than 35 cycles by RT-PCR with SE less than 0.9)
Gata1 gene expression ([1]; 96 hrs): nd (not detectable at >40 cycles by RT-PCR)
HNF-3 beta gene expression ([1]; 96 hrs): + (detectable between 35 and 40 cycles by RT-PCR)
Insulin gene expression ([1]; 96 hrs): + (detectable between 35 and 40 cycles by RT-PCR)
Pdx-1 gene expression ([1]; 96 hrs): nd (not detectable at >40 cycles by RT-PCR)
sox17 gene expression ([1]; 96 hrs): +++ (detectable at less than 35 cycles by RT-PCR with SE less than 0.9)
Gata1 gene expression ([1]; 120 hrs): + (detectable between 35 and 40 cycles by RT-PCR)
HNF-3 beta gene expression ([1]; 120 hrs): +++ (detectable at less than 35 cycles by RT-PCR with SE less than 0.9)
Insulin gene expression ([1]; 120 hrs): nd (not detectable at >40 cycles by RT-PCR)
Pdx-1 gene expression ([1]; 120 hrs): +++ (detectable at less than 35 cycles by RT-PCR with SE less than 0.9)
sox17 gene expression ([1]; 120 hrs): +++ (detectable at less than 35 cycles by RT-PCR with SE less than 0.9)
Gata1 gene expression ([1]; 144 hrs): nd (not detectable at >40 cycles by RT-PCR)
HNF-3 beta gene expression ([1]; 144 hrs): +++ (detectable at less than 35 cycles by RT-PCR with SE less than 0.9)
Insulin gene expression ([1]; 144 hrs): nd (not detectable at >40 cycles by RT-PCR)
Pdx-1 gene expression ([1]; 144 hrs): nd (not detectable at >40 cycles by RT-PCR)
sox17 gene expression ([1]; 144 hrs): +++ (detectable at less than 35 cycles by RT-PCR with SE less than 0.9)
Pdx-1 RT-PCR detection cycle ([1]; 1.25 μM, after the initial treatment): 33 cycles
Insulin RT-PCR detection cycle ([1]; 1.25 μM, after trichostatin A was washed away): 36 cycles
HNF-3 beta RT-PCR detection cycle [1, 3]: 32 cycles
Pdx-1 RT-PCR detection cycle [1, 3]: 32 cycles
HNF-3 beta RT-PCR detection cycle ([1]; 1.25 μM, initial treatment): 35 cycles
HNF-3 beta RT-PCR detection cycle ([1]; 1.25 μM, prior to the second addition): 38 cycles
Gata-1 RT-PCR detection cycle [2]: 38 cycles
